From EP0025842B1, “Peptides, process for their preparation, their pharmaceutical compositions and their intermediates” (FUJISAWA PHARMACEUTICAL CO., LTD., priority 1979, dated 1987) come the findings set out here.

Series [1] concerns mouse L cell. In words: Cell toxicity (mouse L cell). Format: cell-based. As to conditions: 500 µg/ml.
Series [2] relates to mice. In words: Acute toxicity in mice. It counts as in vivo. Conditions: 1 g/kg (i.v.). An excerpt: 7. Acute toxicity in mice of FR-900156 1 g/kg (i.v.): no toxicity

As for `C[C@H](NC(=O)[C@@H](C)O)C(=O)N[C@H](CCC(=O)N[C@@H](CCC[C@@H](N)C(=O)O)C(=O)NCC(=O)O)C(=O)O` [FR-900156, D-Lactyl-L-alanyl-γ-D-glutamyl-(L)-mesodiaminopimelyl(L)-glycine], the “Cell toxicity (mouse L cell)” value in series [1] is recorded as “no toxic effect”. Also, the “Acute toxicity in mice” value in series [2] is “no toxicity”.
